In article PMC8654833 (Scientific Reports, 2021):

Key:
[1] = tested on: Ca^2+ channel, ds; experiment: Single-concentration radioligand binding screen (Eurofins Cerep), Ca2+ channel diltiazem site; settings: single concentration 10 µM screen, [3H]diltiazem
Procedure: (§1) This study included binding assays (87 GPCR targets), measured as % of binding inhibition of a reference radioligand, as well as uptake and enzyme assays (19 targets), the latter measured as % inhibition of control enzyme activity. […] It was performed by radioligand binding competition by Euroscreen (Euroscreen FAST, Belgium). The following nanomolar concentrations were tested in duplicate: 0.001, 0.01, 0.1, 1, 10, 100, 1000, 10,000. Dose–response curves were fitted with the least squares method. IC50 results are shown as pIC50, corresponding to the negative log10 of IC50 in molar.

[2] = target: 5-HT2B (Homo sapiens, UniProt P41595); settings: dose-response study, maximal concentration 10 µM, [3H]mesulergine
Sequence of 5-HT2B (P41595 whole entry, species assumed): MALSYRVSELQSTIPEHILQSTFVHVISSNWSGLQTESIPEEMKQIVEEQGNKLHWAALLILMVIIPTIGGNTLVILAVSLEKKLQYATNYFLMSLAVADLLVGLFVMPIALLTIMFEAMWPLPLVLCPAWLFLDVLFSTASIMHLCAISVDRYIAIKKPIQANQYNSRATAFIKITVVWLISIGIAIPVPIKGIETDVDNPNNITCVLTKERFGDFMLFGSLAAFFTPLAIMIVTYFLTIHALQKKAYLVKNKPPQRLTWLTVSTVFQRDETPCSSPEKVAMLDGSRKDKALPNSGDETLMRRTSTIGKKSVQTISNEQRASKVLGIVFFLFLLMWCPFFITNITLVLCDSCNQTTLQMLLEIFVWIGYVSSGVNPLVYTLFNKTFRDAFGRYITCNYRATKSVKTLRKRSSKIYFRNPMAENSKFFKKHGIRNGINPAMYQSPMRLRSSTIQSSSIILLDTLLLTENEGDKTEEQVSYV

[3] = target: T1, 5-HT1A (Homo sapiens, UniProt P08908); experiment: Single-concentration radioligand binding screen (Eurofins Cerep), 5-HT1A; settings: single concentration 10 µM screen, [3H]8-OH-DPAT
T1 construct: Euroscreen FAST (contract assay)
T1 sequence (P08908 1-422): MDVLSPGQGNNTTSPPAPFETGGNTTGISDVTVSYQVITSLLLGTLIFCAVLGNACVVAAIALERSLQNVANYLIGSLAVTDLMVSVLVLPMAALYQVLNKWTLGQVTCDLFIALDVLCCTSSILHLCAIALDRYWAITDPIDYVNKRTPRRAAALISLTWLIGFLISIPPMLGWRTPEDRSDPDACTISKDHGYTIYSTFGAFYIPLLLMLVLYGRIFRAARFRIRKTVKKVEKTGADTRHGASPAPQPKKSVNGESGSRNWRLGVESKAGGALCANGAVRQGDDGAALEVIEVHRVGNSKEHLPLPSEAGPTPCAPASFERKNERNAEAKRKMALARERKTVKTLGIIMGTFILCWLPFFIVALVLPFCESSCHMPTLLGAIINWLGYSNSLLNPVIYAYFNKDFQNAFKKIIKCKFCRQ
Procedure: as §1

## CC(N)Cc1c[nH]c2ccc(OCc3cccs3)cc12 (stereo not drawn) [BW, 1-[5-(thiophen-2-ylmethoxy)-1H-indol-3-yl]propan-2-amine]
[1]
  %Binding inhibition at 10 µM: 66.3%
[2]
  %Binding inhibition at 10 µM: 103.54%
[3]
  inhibition at 10 µM: 91.8%
